# Reference: patent publication US20230365559A1, “NOVEL AMINOPYRIDINES AND THEIR USE IN TREATING CANCER” (priority 2020, published 2023)
# Values joined by “and” are separate entries in the source; they are usually repeats but may differ in a detail not shown here. Equal values may be shown once. “Also recorded” adds a separate entry of the source.
# Columns and labels:
# [1] = system: HAP1/PRKDC−/− cells; assay: Radiosensitisation of DNA-PK null HAP1/PRKDC−/− cells, regrowth assay; format: cell-based, human; conditions: for radiosensitisation / differential growth inhibition of DNA-PK null HAP1 line: 3 Gy, HAP1/PRKDC−/−; for IC50: Homo sapiens, HAP1
# [2] = molecular target: human DNA-PK (Homo sapiens, UniProt P78527); assay: Inhibition of DNA-PKcs kinase activity, HotSpot assay (Reaction Biology), [γ-33P]-ATP phosphorylation of peptide substrate; format: biochemical; conditions: 10 μM ATP, 10 μg/ml DNA; mean of two replicates; Table 12; read-out: Inhibition of kinase activity (as IC50) DNA-PK (converted)
# [3] = molecular target: human mTOR (Homo sapiens, UniProt P42345); assay: Inhibition of mTOR kinase activity, HotSpot assay, phosphorylation of 4EPB1; conditions: Inhibition of kinase activity (as IC50) mTOR (nM), 10 μM ATP; mean of two replicates; Table 12
# [4] = molecular target: human PI3Kα (p110α/p85α) (Homo sapiens, UniProt P42336); assay: Inhibition of PI3Kα kinase activity, ADP-Glo Assay (Reaction Biology); format: biochemical; conditions: 10 μM ATP; mean of two replicates; Table 12; read-out: Inhibition of kinase activity (as IC50) PICK
# [5] = system: HAP1 cells; assay: Radiosensitisation of HAP1 wild type cells, regrowth assay; format: cell-based, human; conditions: for effect in unirradiated HAP1 cells: 0 Gy; for radiosensitisation / differential growth inhibition of HAP1 cells: 3 Gy cobalt-60 gamma irradiation relative to radiation-only; for IC50: Homo sapiens, HAP1, read-out: HAP1 wt IC50
# [6] = system: UT-SCC-54C cells; assay: Radiosensitisation of UT-SCC-54C HNSCC cells, regrowth (sulforhodamine B) assay, oxic (Table 16); format: cell-based, human; conditions: for IC50: Homo sapiens, read-out: IC50; for S50: compound in combination with 3 Gy of radiation, 50% inhibition of regrowth fraction, UT-SCC-54C; for S50 / radiosensitisation / differential growth inhibition of UT-SCC-54C cells: oxic; for radiosensitisation / differential growth inhibition of UT-SCC-54C cells: 0 or 3 Gy, regrowth assay
# [7] = system: UT-SCC-54C cells; assay: Radiosensitisation of UT-SCC-54C HNSCC cells, clonogenic survival, oxic and anoxic (Table 18); format: cell-based, human; conditions: for Plating efficiency drug/no drug: no radiation
# Chain of human PI3Kα (p110α/p85α) (P42336 whole entry): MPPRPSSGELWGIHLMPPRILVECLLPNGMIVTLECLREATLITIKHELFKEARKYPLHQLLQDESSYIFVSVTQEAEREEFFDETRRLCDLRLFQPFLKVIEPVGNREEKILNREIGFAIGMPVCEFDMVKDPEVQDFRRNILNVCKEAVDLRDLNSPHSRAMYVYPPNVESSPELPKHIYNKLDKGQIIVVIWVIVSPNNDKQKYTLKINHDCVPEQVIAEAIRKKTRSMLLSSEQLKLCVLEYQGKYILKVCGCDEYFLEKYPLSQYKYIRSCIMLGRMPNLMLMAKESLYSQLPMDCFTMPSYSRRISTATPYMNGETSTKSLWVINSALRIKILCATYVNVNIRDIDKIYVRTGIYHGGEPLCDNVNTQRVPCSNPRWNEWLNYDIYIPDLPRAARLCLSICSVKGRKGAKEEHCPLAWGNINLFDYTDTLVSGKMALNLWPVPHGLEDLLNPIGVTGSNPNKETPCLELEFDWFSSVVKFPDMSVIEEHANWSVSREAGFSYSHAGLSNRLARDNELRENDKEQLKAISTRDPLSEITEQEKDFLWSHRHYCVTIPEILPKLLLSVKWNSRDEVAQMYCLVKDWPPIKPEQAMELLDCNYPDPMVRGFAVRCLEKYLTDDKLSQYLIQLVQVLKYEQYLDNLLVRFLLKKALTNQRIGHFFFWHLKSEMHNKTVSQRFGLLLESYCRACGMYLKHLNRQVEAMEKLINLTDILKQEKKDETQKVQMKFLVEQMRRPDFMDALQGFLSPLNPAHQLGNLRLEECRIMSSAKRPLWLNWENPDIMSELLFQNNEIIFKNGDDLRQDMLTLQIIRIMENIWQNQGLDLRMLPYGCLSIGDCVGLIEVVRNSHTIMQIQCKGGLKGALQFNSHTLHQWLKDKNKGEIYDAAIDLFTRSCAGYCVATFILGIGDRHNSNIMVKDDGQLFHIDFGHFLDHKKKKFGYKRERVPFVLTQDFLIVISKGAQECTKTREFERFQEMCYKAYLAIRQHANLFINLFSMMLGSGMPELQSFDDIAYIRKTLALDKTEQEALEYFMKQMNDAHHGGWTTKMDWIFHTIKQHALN
# Chain of human PI3Kα (p110α/p85α) (P27986 whole entry partner): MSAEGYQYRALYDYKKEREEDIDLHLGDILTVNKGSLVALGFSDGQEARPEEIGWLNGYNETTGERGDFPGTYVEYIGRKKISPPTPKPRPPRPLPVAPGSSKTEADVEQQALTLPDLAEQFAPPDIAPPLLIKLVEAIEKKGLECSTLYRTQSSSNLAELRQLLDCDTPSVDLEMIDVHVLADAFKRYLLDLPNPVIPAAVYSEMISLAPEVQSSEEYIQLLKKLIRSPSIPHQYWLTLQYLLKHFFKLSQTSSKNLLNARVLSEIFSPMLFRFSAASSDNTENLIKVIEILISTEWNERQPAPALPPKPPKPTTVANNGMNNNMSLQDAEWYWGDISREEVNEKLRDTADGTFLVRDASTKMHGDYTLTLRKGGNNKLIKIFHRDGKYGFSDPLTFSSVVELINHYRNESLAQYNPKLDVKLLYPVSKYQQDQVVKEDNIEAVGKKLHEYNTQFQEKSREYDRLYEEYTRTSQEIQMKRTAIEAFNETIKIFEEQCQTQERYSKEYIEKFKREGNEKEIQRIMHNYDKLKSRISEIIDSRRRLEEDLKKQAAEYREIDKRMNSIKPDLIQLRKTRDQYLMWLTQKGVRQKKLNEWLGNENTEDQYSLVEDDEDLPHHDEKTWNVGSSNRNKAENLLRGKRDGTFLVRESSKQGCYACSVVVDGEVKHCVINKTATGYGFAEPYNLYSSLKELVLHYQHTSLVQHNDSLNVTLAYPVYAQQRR
compound,measurement,setting,value
"COc1cc(C)c(Nc2cc3c(cn2)n(C)c(=O)n3C2CCOCC2)cn1 [Compound 126, 6-((6-Methoxy-4-methylpyridin-3-yl)amino)-3-methyl-1-(tetrahydro-2H-pyran-4-yl)-1,3-dihydro-2H-imidazo[4,5-c]pyridin-2-one]",radiosensitisation / differential growth inhibition of DNA-PK null HAP1 line,[1],did not radiosensitise
same,IC50,[1],> 10 µM
same,IC50,[2],0.00906 µM
same,IC50,[3],12600 nM
same,IC50,[4],4.23 µM
same,effect in unirradiated HAP1 cells,[5],little effect
same,radiosensitisation / differential growth inhibition of HAP1 cells,[5],concentration-dependent radiosensitisation
same,IC50,[5],> 10 µM
same,IC50,[6],> 10 µM
same,S50,[6],0.32 µM
"Cc1nc2cc(C)c(Nc3cc4c(cn3)n(C)c(=O)n4C3CCOCC3)cc2o1 [Compound 132, 6-((2,5-Dimethylbenzo[d]oxazol-6-yl)amino)-3-methyl-1-(tetrahydro-2H-pyran-4-yl)-1,3-dihydro-2H-imidazo[4,5-c]pyridin-2-one]",radiosensitisation / differential growth inhibition of DNA-PK null HAP1 line,[1],did not radiosensitise
same,IC50,[2],0.0126 µM
same,IC50,[3],60200 nM
same,IC50,[4],5.57 µM
same,effect in unirradiated HAP1 cells,[5],little effect
same,radiosensitisation / differential growth inhibition of HAP1 cells,[5],concentration-dependent radiosensitisation
same,IC50,[6],> 10 µM
same,S50,[6],0.49 µM
"Cc1cc(O)ccc1Nc1cc2c(cn1)n(C)c(=O)n2C1CCOCC1 [Compound 135, 6-((4-Hydroxy-2-methylphenyl)amino)-3-methyl-1-(tetrahydro-2H-pyran-4-yl)-1,3-dihydro-2H-imidazo[4,5-c]pyridin-2-one]",radiosensitisation / differential growth inhibition of DNA-PK null HAP1 line,[1],did not radiosensitise; also recorded: did not demonstrate any differential growth inhibition
same,IC50,[1],> 10 µM
same,IC50,[2],0.0057 µM and 0.0171 µM
same,IC50,[4],3.22 µM and 5.24 µM
same,D1 (radiation dose for 1% surviving fraction),"[7]; 0% O2, compound conc 1 μM",11.5 Gy
same,D10 (radiation dose for 10% surviving fraction),"[7]; 0% O2, compound conc 1 μM",6.37 Gy
same,SER1 (sensitiser enhancement ratio at 1% surviving fraction),"[7]; 0% O2, compound conc 1 μM",2.07
same,SER10 (sensitiser enhancement ratio at 10% surviving fraction),"[7]; 0% O2, compound conc 1 μM",2.47
same,Plating efficiency drug/no drug,"[7]; 0% O2, compound conc 1 μM",1.12
same,D1 (radiation dose for 1% surviving fraction),"[7]; 20% O2, compound conc 0.33 μM",1.37 Gy
same,D10 (radiation dose for 10% surviving fraction),"[7]; 20% O2, compound conc 0.33 μM",4.85 Gy
same,SER1 (sensitiser enhancement ratio at 1% surviving fraction),"[7]; 20% O2, compound conc 0.33 μM",1.20
same,SER10 (sensitiser enhancement ratio at 10% surviving fraction),"[7]; 20% O2, compound conc 0.33 μM",8.09
same,Plating efficiency drug/no drug,"[7]; 20% O2, compound conc 0.33 μM",0.77
same,D10 (radiation dose for 10% surviving fraction),"[7]; 20% O2, compound conc 1 μM",3.15 Gy and 2.88 Gy
same,SER1 (sensitiser enhancement ratio at 1% surviving fraction),"[7]; 20% O2, compound conc 1 μM",1.5 and 1.59
same,Plating efficiency drug/no drug,"[7]; 20% O2, compound conc 1 μM",0.59 and 0.89
same,D1 (radiation dose for 1% surviving fraction),"[7]; 20% O2, compound conc 3 μM",2.91 Gy
same,D10 (radiation dose for 10% surviving fraction),"[7]; 20% O2, compound conc 3 μM",2.28 Gy
same,SER1 (sensitiser enhancement ratio at 1% surviving fraction),"[7]; 20% O2, compound conc 3 μM",1.92
same,SER10 (sensitiser enhancement ratio at 10% surviving fraction),"[7]; 20% O2, compound conc 3 μM",5.06
same,Plating efficiency drug/no drug,"[7]; 20% O2, compound conc 3 μM",0.63
same,"radiosensitisation, clonogenic survival endpoint","[7]; UT-SCC-54C, FIG. 8 and Table 18",concentration-dependent increases in radiosensitisation
same,effect in unirradiated HAP1 cells,[5],little effect
same,IC50,[5],> 10 µM
same,IC50,[6],> 10 µM
same,S50,[6],0.93 µM
"COc1cnc(Nc2cc3c(cn2)n(C)c(=O)n3C2CCOCC2)c(C)c1 [Compound 220, 6-((5-Methoxy-3-methylpyridin-2-yl)amino)-3-methyl-1-(tetrahydro-2H-pyran-4-yl)-1,3-dihydro-2H-imidazo[4,5-c]pyridin-2-one]",IC50,[2],0.17 µM
same,IC50,[3],> 100000 nM
same,IC50,[4],24 µM
same,IC50,[6],> 10 µM
same,S50,[6],4.4 µM
"Cc1cc2nccnc2cc1Nc1cc2c(cn1)n(C)c(=O)n2C1CCOCC1 [Compound 225, 3-Methyl-6-((7-methylquinoxalin-6-yl)amino)-1-(tetrahydro-2H-pyran-4-yl)-1,3-dihydro-2H-imidazo[4,5-c]pyridin-2-one]",IC50,[2],0.0034 µM
same,IC50,[3],58500 nM
same,IC50,[4],1.65 µM
same,IC50,[6],> 10 µM
same,S50,[6],0.27 µM
"COc1ccc(N(C(=O)OCc2cnc([N+](=O)[O-])n2C)c2cc3c(cn2)n(C)c(=O)n3C2CCCC2)c(C)c1 [Compound 247, (1-Methyl-2-nitro-1H-imidazol-5-yl)methyl (1-cyclopentyl-3-methyl-2-oxo-2,3-dihydro-1H-imidazo[4,5-c]pyridin-6-yl)(4-methoxy-2-methylphenyl)carbamate]",IC50,[2],0.871 µM
same,IC50,[3],> 100000 nM
same,IC50,[4],> 10 µM
same,IC50,[6],> 10 µM
same,S50,[6],>10 µM
same,radiosensitisation / differential growth inhibition of UT-SCC-54C cells,[6],did not display any differential growth inhibition
"COc1ccc(N(C(=O)OCc2ncc([N+](=O)[O-])n2C)c2cc3c(cn2)n(C)c(=O)n3C2CCOCC2)c(C)c1 [Compound 251, (1-Methyl-5-nitro-1H-imidazol-2-yl)methyl (4-methoxy-2-methylphenyl)(3-methyl-2-oxo-1-(tetrahydro-2H-pyran-4-yl)-2,3-dihydro-1H-imidazo[4,5-c]pyridin-6-yl)carbamate]",IC50,[2],1.26 µM
same,IC50,[3],> 100000 nM
same,IC50,[4],> 100 µM
same,D1 (radiation dose for 1% surviving fraction),"[7]; 0% O2, compound conc 1 μM",19.50 Gy
same,D10 (radiation dose for 10% surviving fraction),"[7]; 0% O2, compound conc 1 μM",13.17 Gy
same,SER1 (sensitiser enhancement ratio at 1% surviving fraction),"[7]; 0% O2, compound conc 1 μM",1.10
same,SER10 (sensitiser enhancement ratio at 10% surviving fraction),"[7]; 0% O2, compound conc 1 μM",1.06
same,Plating efficiency drug/no drug,"[7]; 0% O2, compound conc 1 μM",1.03
same,sensitisation of UT-SCC-54C cells selectively under anoxia,"[7]; oxic vs anoxic, clonogenic survival, FIGS. 9 and 10",provide sensitisation of UT-SCC-54C cells selectively under anoxia
same,IC50,[6],> 10 µM
same,S50,[6],>10 µM
same,radiosensitisation / differential growth inhibition of UT-SCC-54C cells,[6],did not display any differential growth inhibition
"Cc1cc(Cl)ccc1N(C(=O)OCc1cnc([N+](=O)[O-])n1C)c1cc2c(cn1)n(C)c(=O)n2C1CCOCC1 [Compound 257, (1-Methyl-2-nitro-1H-imidazol-5-yl)methyl (4-chloro-2-methylphenyl)(3-methyl-2-oxo-1-(tetrahydro-2H-pyran-4-yl)-2,3-dihydro-1H-imidazo[4,5-c]pyridin-6-yl)carbamate]",IC50,[2],0.203 µM
same,IC50,[3],> 100000 nM
same,IC50,[4],> 100 µM
same,IC50,[6],> 10 µM
same,S50,[6],>10 µM
same,radiosensitisation / differential growth inhibition of UT-SCC-54C cells,[6],did not display any differential growth inhibition
"COc1ccc(N(C(=O)OCc2cnc([N+](=O)[O-])n2C)c2cc3c(cn2)n(C)c(=O)n3C2CCC(OC)CC2)c(C)c1 (stereo not shown) [Compound 258, (1-Methyl-2-nitro-1H-imidazol-5-yl)methyl (4-methoxy-2-methylphenyl)(1-(4-methoxycyclohexyl)-3-methyl-2-oxo-2,3-dihydro-1H-imidazo[4,5-c]pyridin-6-yl)carbamate]",IC50,[2],0.754 µM
same,IC50,[3],> 100000 nM
same,IC50,[4],39.2 µM
same,IC50,[6],> 10 µM
same,S50,[6],>10 µM
same,radiosensitisation / differential growth inhibition of UT-SCC-54C cells,[6],did not display any differential growth inhibition
